Columns and labels:
claudin-14 protein = claudin-14 protein levels in freshly isolated TALH cells pooled from treated mouse kidneys (western blot); assay type: in vivo; settings: for claudin-14 protein levels, change: 30 mg/kg BW−1 per day for 6 days, 24 hrs following the last treatment
Protocol: (§1) An immunomagnetic separation method was used to isolate the TAL cells from the mouse kidney (Hou et al., 2009). Antibodies against the TAL cell specific surface antigen, Tamm-Horsfall protein (THP), were coated onto the paramagnetic polystyrene beads (Dynabeads M-280; Dynal), allowing immunoprecipitation of the TAL cells from collagenase digested mouse kidneys. The isolated cells were plated in DMEM medium supplemented with 10% FBS, penicillin/streptomycin, and 1 mM sodium pyruvate for 16 hours, followed by immediate transfection with NFAT or antagomirs.
Because of the low abundance of claudin-14 proteins in the whole kidney, an immunomagnetic separation method was adapted to freshly isolate the TALH tubular cells from the kidneys of each treated mouse, pooled the TALH cells from all animals (N=5) within each treatment group and quantified claudin-14 protein levels by western blot. […] Claudin-14 proteins were immunostained in mouse kidneys to investigate changes in TJ localization.
as §1, with “TALH” for “TAL”, “kidney. (Gong Y,” for “kidney (Hou”, “al. 2012 and Gong Y, et al. 2013)” for “al., 2009).”, “protein,” for “protein (THP),”, “treatment.” for “transfection with NFAT or antagomirs.”
as §1, with “TALH” for “TAL”, “kidney. (Gong, Y.,” for “kidney (Hou”, “2012; Hou, J., et al., 2009)” for “2009).”, “(THP; a GPI-anchored protein that is exclusively expressed in the TALH and the early part of the DCT,) (Stricklett, P. K., et al., 2003; Bernascone, I., et al., 2010)” for “(THP),”, “NFAT.” for “NFAT or antagomirs.”
Changes in claudin-14 protein levels were captured as early as 2 hrs following a single oral dose of NPS2143 or cinacalcet (30 mg/kg BW^−1) treatment. Because of the low abundance of claudin-14 proteins in the whole kidney, the inventors adapted an immunomagnetic separation method to freshly isolate the TALH tubular cells from the kidneys of each treated mouse (described in Gong, Y., et al., 2012 and Hou, J., et al. 2009; see Methods), pooled the TALH cells from all animals (N=5) within each treatment group, isolated plasma membrane proteins and quantified claudin-14 protein levels by western blot. […] Although claudins were previously considered static molecules sequestered in the tight junction, several recent studies have found similarly rapid turnover rate of less than 60 min for claudins (see Discussion). Claudin-14 proteins were inummuostained in mouse kidneys to investigate changes in TJ localization.

pri-miR-9-1 = pri-miR-9-1 transcript levels in TALH of treated mouse kidneys (real-time PCR); assay type: in vivo; settings: for changes in pri-miR-9-1 levels: by 8 hrs
Description: (§2) Total RNA including microRNA was extracted using Trizol (Invitrogen). Cellular mRNA was reverse transcribed using the Superscript-III kit (Invitrogen), followed by real-time PCR amplification using SYBR Green PCR Master Mix (Bio-Rad) and Eppendorf Realplex2S system. The design of claudin-14 primers was described above. The design of pri-miRNA primers was according to Ma et al., (2010). Results were expressed as 2^−ΔCt values with ΔCT=Ctgene−Ctβ-actin.
(§3) To measure the transcriptional level for microRNA gene in vivo in the kidney, the inventors designed primers (see Methods; Table 2) to amplify the pri-miRNA molecule, the original transcript for microRNA gene that had not yet been subjected to any nuclear or cellular processing. Because both miR-9 and miR-374 had broader localization profiles along the nephron, the inventors isolated the TALH tubular cells for pri-miRNA analyses from the mouse kidney described elsewhere in this study. WT mice (strain: C57BL/6) were treated with NPS2143 or cinacalcet as described for claudin-14 analyses and assayed for pri-miRNA levels in isolated TALH cells at 2 hrs and 8 hrs respectively. […] NPS2143 and cinacalcet also profoundly regulated pri-miR-374. […] The expression levels of miR-9-1 and miR-374 genes were both inversely correlated with that of claudin-14 gene in the kidney, compatible with the silencing role of microRNA in regulating its target gene.
(§4) Total RNA including microRNA was extracted using Trizol (Invitrogen). Cellular mRNA was reverse transcribed using the Superscript-III kit (Invitrogen), followed by real-time PCR amplification using SYBR Green PCR Master Mix (Bio-Rad) and Eppendorf Realplex2S system. The design of claudin-14 primers was described before by Gong et al., 2012. The design of pri-miRNA primers and ChIP primers was according to Gong et al., 2013. Results were expressed as 2^−ΔCt values with ΔCT=Ctgene−Ctβ-actin.
as §4, with “by Gong. Y.,” for “by Gong”, “primers” for “primers and ChIP primers”, “to Ma. L.,” for “to Gong”, “al., 2010.” for “al., 2013.”

pri-miR-374 = pri-miR-374 transcript levels in TALH of treated mouse kidneys (real-time PCR); assay type: in vivo; settings: for pri-miR-374 levels versus control: 8 hrs
Description: as §2, §3, §4
as §4, with “by Gong. Y.,” for “by Gong”, “primers” for “primers and ChIP primers”, “to Ma. L.,” for “to Gong”, “al., 2010.” for “al., 2013.”

miR-374 promoter = experiment: ChIP over miR-374 promoter in TALH cells of treated mice; assay type: in vivo, mouse; settings: for H3K9 and H3K14 acetylation levels, miR-374 promoter region / fold enrichment of NFATc1 over miR-374 promoter region: 30 mg/kg BW−1, 2 hrs; for H3K9 and H3K14 acetylation levels, miR-374 promoter region: higher than vehicle level; for fold enrichment of NFATc1 over miR-374 promoter region: versus vehicle
Protocol: (§5) Freshly isolated TALH cells or primary TALH cell cultures were cross-linked in 1% paraformaldehyde (pH7.0) for 10 min at room temperature. The cross-linked cells were lysed following to instruction of MAGnify ChIP system (Invitrogen). Chromatin was sonicated into 500 bp fragments with Bioruptor UCD-200 (High power, 15 cycles of 30 seconds ON, 30 seconds OFF; Diagenode). Sheared chromatin was precipitated with antibody-bound Dynabeads (Invitrogen). Following reverse crosslink and DNA extraction, antibody-bound DNA was eluted and analyzed with real-time PCR. Two criteria for normalization were applied: fold enrichment over anti-IgG background signal and input control over chromatin input signal.
as §5, with “OFF,” for “OFF;”

[1] = TPTX mice, 30 mg/kg BW−1, 2 hrs
[2] = cyclosporine-A pre-treated animals, 30 mg/kg BW−1, 2 hrs

SMILES: O=C(CCCCCCC(=O)Nc1ccccc1)NO [SAHA, Suberanilohydroxamic acid]
- CLDN14 protein levels, reduction (claudin-14 protein; 25 mg/kg BW−1, 4 hr): 60%
- transcriptional levels of miR-9-1 gene (pri-miR-9-1), increase (pri-miR-9-1; 25 mg/kg BW−1, 4 hrs): 1.49 fold
- transcriptional levels of miR-374 gene (pri-miR-374), increase (pri-miR-374; 25 mg/kg BW−1, 4 hrs): 1.85 fold
- H3K9 and H3K14 acetylation, miR-374 promoter, increase (miR-374 promoter; 25 mg/kg BW−1, 4 hrs): 2.45 fold
- NFAT binding to miR-374 promoter (miR-374 promoter; 25 mg/kg BW−1, 4 hrs): not affected

SMILES: C[C@@H](NCCCc1cccc(C(F)(F)F)c1)c1cccc2ccccc12 [cinacalcet]
- claudin-14 protein levels, change (claudin-14 protein): Neither NPS2143 nor cinacalcet caused changes
- claudin-14 protein levels, upregulation (claudin-14 protein; single oral dose 30 mg/kg BW−1, 2 hrs): 2.98 fold
- pri-miR-9-1 transcript level, decrease (pri-miR-9-1; 30 mg/kg BW−1, 2 hrs): 88%
- changes in pri-miR-9-1 levels (pri-miR-9-1; 30 mg/kg BW−1): dissipated completely
- pri-miR-9-1 level, reduction (pri-miR-9-1; [1]): 55%
- pri-miR-9-1 mRNA levels, decrease (pri-miR-9-1; [2]): 34%
- pri-miR-374, downregulation (pri-miR-374; 30 mg/kg BW−1, 2 hrs): 71%
- pri-miR-374 levels versus control (pri-miR-374; 30 mg/kg BW−1): not different from control
- pri-miR-374 level, reduction (pri-miR-374; [1]): 53%
- pri-miR-374 mRNA levels, decrease (pri-miR-374; [2]): 39%
- H3K9 and H3K14 acetylation levels, miR-374 promoter region (miR-374 promoter): not
- fold enrichment of NFATc1 over miR-374 promoter region (miR-374 promoter): without significant effect

SMILES: CC(C)(Cc1ccc2ccccc2c1)NC[C@@H](O)COc1cccc(Cl)c1C#N [NPS2143]
- claudin-14 protein levels, change (claudin-14 protein): Neither NPS2143 nor cinacalcet caused changes
- claudin-14 protein levels, percent of the vehicle treatment (claudin-14 protein; single oral dose 30 mg/kg BW−1, 2 hrs, densitometric scale): 32%
- changes in pri-miR-9-1 levels (pri-miR-9-1; 30 mg/kg BW−1): dissipated completely
- pri-miR-9-1 level, increase (pri-miR-9-1; TPTX mice, 30 mg/kg BW−1): 19%
- pri-miR-9-1 mRNA levels, change (pri-miR-9-1; [2]): failed to elicit any significant change
- pri-miR-9-1 transcript level, increase (pri-miR-9-1; single-dose 30 mg/kg BW−1, 2 hrs): 7.65 fold
- pri-miR-374, upregulation (pri-miR-374; 30 mg/kg BW−1, 2 hrs): 2.91 fold
- pri-miR-374 levels versus control (pri-miR-374; 30 mg/kg BW−1): not different from control
- pri-miR-374 level, change (pri-miR-374; TPTX mice, 30 mg/kg BW−1): failed to elicit a significant change
- pri-miR-374 mRNA levels, change (pri-miR-374; [2]): failed to elicit any significant change
- H3K9 and H3K14 acetylation levels, miR-374 promoter region (miR-374 promoter): 1.93 fold
- fold enrichment of NFATc1 over miR-374 promoter region (miR-374 promoter): 1.51 fold
